The record followed here is patent EP1619195A2, “Compounds isolated from gamboge resin having activity in inhibiting the growth of tumor/cancer cells and pharmaceutical compositions comprising the same” (priority 2004, dated 2006).

≈ marks a conversion by molar mass, not a printed value. Where “and” joins values, the source holds several entries; their conditions need not be identical. Equal values may be shown once. Marks after values point to notes of the source that are not given here.

Series [1] has as its system HUVEC. The experiment in a line: in vitro. Particulars: for LC50: 50% cell destroying lethal concentration. An excerpt:
(§1) The cancer cell growth inhibition test was primarily used to detect the effect of a candidate drug on cancer cell proliferation. The working principle involved therein is the abilityof viable cells to shift alamarBlue (Biosource, USA) from its originally non-fluorescent oxidized state to a reduced form (fluorescent, red) having fluorescence via metabolic reaction. According to the fluorescent data result generated by the alamarBlue reagent thus obtained, the proliferation of the viable cells and cell activity can be quantified for detection.
(§2) In this experiment, the assay concentrations of the candidate drug were set to be 0.01, 0.1, 1, 10, and 100 µg/ml, and the following cell lines were used: 6 human cancer cells MCF-7 (breast cancer), HT-29 (colon cancer), HL-60 (leukemia), HepG2 (liver cancer), A549 (lung cancer), and U937 (lymphoma cancer), and a normal human umbilicalvenalepithelialcell (HUVEC).

The subject of series [2] is U937 (lymphoma cancer). In words: cells. Particulars: for LC50: 50% cell destroying lethal concentration.
Text: as §1, §2

For series [3], the system named is HT-29 (colon cancer). In words: cells. The note with it: for LC50: 50% cell destroying lethal concentration.
Text: as §1, §2

For series [4], the system named is A549 (lung cancer). The experiment in a line: cells. The note with it: for LC50: 50% cell destroying lethal concentration.
Text: as §1, §2

The test system of series [5] is HL-60 (leukemia). In words: cells. The note with it: for LC50: 50% cell destroying lethal concentration.
Text: as §1, §2

The test system of series [6] is MCF-7 (breast cancer). The experiment in a line: cells. The note with it: for LC50: 50% cell destroying lethal concentration.
Text: as §1, §2

Series [7] deals with HepG2 (liver cancer). The experiment in a line: cells. Particulars: for LC50: 50% cell destroying lethal concentration.
Text: as §1, §2

The test system of series [8] is Human breast cancer cells MCF-7 (ATCC HTB-22). In words: In vivo tumor growth inhibition, MCF-7 xenograft in SCID mice. The note with it: 2 mg/kg x 5, intraperitoneal, 4-day interval. How it is done: Mixture formulation TSB-9 was further subjected to an animal test, in which female mice (6-8 weeks old, weighing 20-22 grams) originally from C.B-17/Icr background and having Severe Combined Immune Deficiency (SCID) were used.
Human breast cancer cells MCF-7 (ATCC HTB-22) (1x10^7 cells/0.2 ml) were implanted subcutaneously into the dorsal side of the mice, and 50 µg/mouse of estradiol benzoate (Sigma, USA) was injected subcutaneously into the mice weekly as supplement for a total of 4 weeks. When the tumor growth reached ≥5 mm in diameter (that very day was denoted as day 1), tumor-bearing […] mice were randomly divided into 4 groups (6 mice in each group).
Mixture formulation TSB-9 was dissolved in 10%DMSO, and was administered orally to the mice every day at two dosages 40 mg/kg and 80 mg/kg, respectively, for a total of 21 consecutive days. […] This treatment group served as a positive control.
Measurements were taken once every 4 days during the experiment periods, and were recorded.

Series [9] is described as follows: in vitro. The note with it: human.
Text: as §1, §2

In the case of `CO[C@@]12[C@H](COC(N)=O)C3=C(C(=O)C(C)=C(N)C3=O)N1C[C@@H]1N[C@@H]12` [mitomycin, reference compound], the IC50 in series [1] (HUVEC (normal human cell), positive control) is 240 nM; in series [1] (HUVEC (normal human cell), positive control, listed as Mitomycin) it was 170 nM; in series [2] (Homo sapiens, U-937, U937, positive control), 69 nM; in series [2] (U937, positive control), 35 nM and 56 nM; in series [3] (HT-29, positive control) it was 120 nM and 89 nM; in [3] (Homo sapiens, HT-29, HT-29, positive control) it was 90 nM. For the same molecule, the 50% inhibitory concentration (IC50) was 62 nM and 61 nM in [4] (A549, positive control); 68 nM in series [4] (Homo sapiens, A549, A549, positive control); 47 nM and 27 nM in [5] (HL-60, positive control); 39 nM in series [5] (Homo sapiens, HL-60, HL-60, positive control); 69 nM and 34 nM in series [6] (MCF-7, positive control); 26 nM in [7] (HepG2, positive control). The IC50 in series [7] (HepG2, positive control, listed as Mitomycin) was 62 nM and 36 nM. The “Tumor growth (%T/C)” value in series [8] (Day 1) was 98%; in series [8] (Day 5) it was 31* %; in series [8] (Day 9), 1* %; in series [8] (Day 13), -6* %; in series [8] (Day 17), -23* %; in series [8] (Day 21), -36* %. For the same molecule, the “Tumor growth (%T/C)” value is recorded as -56* % in series [8] (Day 25) and -70* % in series [8] (Day 29).

Regarding `CC(C)=CCC[C@]1(C)C=Cc2c(O)c3c(c(CC=C(C)C)c2O1)O[C@]12C(=C[C@@H]4C[C@H]1C(C)(C)O[C@@]2(C/C=C(/C)C(=O)O)C4=O)C3=O` [TSB-5, gambogic acid], the CC50 in series [9] is 3.6 µg/mL (≈ 5.73 µM); in series [2] (Homo sapiens, U-937, read-out: LC50) it was 3.1 µg/mL (≈ 4.93 µM); in series [3] (Homo sapiens, HT-29, read-out: LC50), 7.1 µg/mL (≈ 11.3 µM); in series [4] (Homo sapiens, A549, read-out: LC50), 2.9 µg/mL (≈ 4.61 µM); in series [5] (Homo sapiens, HL-60, read-out: LC50), 5.2 µg/mL (≈ 8.27 µM); in series [6] (Homo sapiens, MCF7, read-out: LC50), 2.7 µg/mL (≈ 4.29 µM). In [7] (Homo sapiens, HepG2, read-out: LC50), the CC50 came to 2.7 µg/mL (≈ 4.29 µM). Moreover, the IC50 in series [1] (Homo sapiens, HUVEC, HUVEC (normal human cell), 50% cell growth inhibition concentration) worked out at 0.87 µg/mL; in series [2] (Homo sapiens, U-937, U937, 50% cell growth inhibition concentration) it was 0.65 µg/mL; in series [3] (Homo sapiens, HT-29, HT-29, 50% cell growth inhibition concentration), 4.5 µg/mL; in [4] (Homo sapiens, A549, A549, 50% cell growth inhibition concentration), 0.8 µg/mL; in series [5] (Homo sapiens, HL-60, HL-60, 50% cell growth inhibition concentration) it was 0.5 µg/mL; in series [6] (Homo sapiens, MCF7, MCF-7, 50% cell growth inhibition concentration) it was 0.83 µg/mL. In series [7] (Homo sapiens, HepG2, HepG2, 50% cell growth inhibition concentration), the IC50 is 0.83 µg/mL.

For the molecule `CC(C)=CCc1c2c(c(O)c3c1OC14C(=CC5CC1C(C)(C)OC4(CC=C(C)C(=O)O)C5=O)C3=O)C=CC(C)(C)O2` (stereo not drawn) [TSB-7, morellic acid], the LC50 was 4.8 µg/mL (≈ 8.56 µM) in series [1] (HUVEC (normal human cell)); 4.8 µg/mL (≈ 8.56 µM) in series [2] (U937); 7.2 µg/mL (≈ 12.8 µM) in series [3] (HT-29); 3.4 µg/mL (≈ 6.06 µM) in series [4] (A549); 5.6 µg/mL (≈ 9.99 µM) in series [5] (HL-60); 6.2 µg/mL (≈ 11.1 µM) in [6] (MCF-7). Besides, the LC50 in [7] (HepG2) was 3.9 µg/mL (≈ 6.96 µM). In addition, the IC50 in series [1] (HUVEC (normal human cell), 50% cell growth inhibition concentration) turned out to be 0.88 µg/mL; in series [2] (U937, 50% cell growth inhibition concentration) it was 1.6 µg/mL; in [3] (HT-29, 50% cell growth inhibition concentration), 2.8 µg/mL; in series [4] (A549, 50% cell growth inhibition concentration), 0.76 µg/mL; in series [5] (HL-60, 50% cell growth inhibition concentration), 1.2 µg/mL; in series [6] (MCF-7, 50% cell growth inhibition concentration), 0.98 µg/mL. Besides, the IC50 in [7] (HepG2, 50% cell growth inhibition concentration) worked out at 1.7 µg/mL.

As to `CC(C)=CCc1c2c(c(O)c3c1OC14C(=CC5CC1C(C)(C)OC4(CC=C(C)CO)C5=O)C3=O)C=CC(C)(C)O2` (stereo not drawn) [TSB-6, isomorellinol], the LC50 in series [1] (HUVEC (normal human cell)) amounted to 9.3 µg/mL (≈ 17 µM); in series [2] (U937), 3.8 µg/mL (≈ 6.95 µM); in series [3] (HT-29) it was 8.5 µg/mL (≈ 15.5 µM); in [4] (A549), 9.6 µg/mL (≈ 17.6 µM); in [5] (HL-60) it was 6.2 µg/mL (≈ 11.3 µM); in series [6] (MCF-7), 5.8 µg/mL (≈ 10.6 µM). The LC50 in [7] (HepG2) is 3.0 µg/mL (≈ 5.49 µM). Also, the IC50 in series [1] (Homo sapiens, HUVEC) came out at 1.5 µg/mL; in series [2] (Homo sapiens, U-937), 1.3 µg/mL; in [3] (Homo sapiens, HT-29), 5.2 µg/mL; in series [4] (Homo sapiens, A549), 2 µg/mL; in [5] (Homo sapiens, HL-60), 1.4 µg/mL; in series [6] (Homo sapiens, MCF7) it was 0.9 µg/mL. In addition, the IC50 in series [7] (Homo sapiens, HepG2) is 1.2 µg/mL.

By IC50 is commonly meant the point on the concentration scale where inhibition reaches its midpoint. The low end stands for greater potency, the high end for weaker potency. The LC50 is the concentration that kills 50% of the test population. A low value points to a more lethal substance.
